Drawing on patent US20230013602A1, “NOVEL IMIDAZOPYRAZINE DERIVATIVES” (Hoffmann-La Roche Inc., priority 2018, published 2023), this text covers IC90 for 24 compounds.

Where a name gives a salt, the structure may show the parent alone.

One test deals with Acinetobacter baumannii ATCC 17978. In words: Antimicrobial susceptibility testing, 90% growth inhibitory concentration (IC90) determination. In kind it is cell-based. Particulars: Acinetobacter baumannii ATCC17978, Iso-Sensitest broth, OD 600 nm over 16 h. As to the method:
(§1) The in vitro antimicrobial activity of the compounds was determined according to the following procedure:
(§2) The assay used a 10-points Iso-Sensitest broth medium to measure quantitatively the in vitro activity of the compounds against Acinetobacter baumannii ATCC 17978 and Acinetobacter baumannii ATCC17961.
(§3) Stock compounds in DMSO were serially twofold diluted (e.g. range from 50 to 0.097 μM final concentration) in 384 wells microtiter plates and inoculated with 49 μl the bacterial suspension in Iso-Sensitest medium to have a final cell concentration of ˜5×10^(5) CFU/ml in a final volume/well of 50 ul/well. Microtiter plates were incubated at 35+2° C.
(§4) Bacterial cell growth was determined with the measurement of optical density at X=600 nm each 20 minutes over a time course of 16 h. Growth inhibition was calculated during the logarithmic growth of the bacterial cells with determination of the concentration inhibiting 50% (IC50) and 90% (IC90) of the growth.
(§5) Table 1 provides the 90% growth inhibitory concentrations (IC90) in micromoles per liter of the compounds of present invention obtained against the strain Acinetobacter baumannii ATCC17978 and Acinetobacter baumannii ATCC17961.
For `COc1ccc(-c2cnc3c(Nc4ccc(C(=O)N(C)C5CCNCC5)c(C)c4)nccn23)cc1F` [Example 21, 4-[[3-(3-fluoro-4-methoxyphenyl)imidazo[1,2-a]pyrazin-8-yl]amino]-N, 2-dimethyl-N-piperidin-4-ylbenzamide;hydrochloride], the IC90 came out at 1100 nM. For `CCc1cc(Nc2nccn3c(-c4ccc(OC)c(F)c4F)cnc23)ccc1C(=O)N[C@H]1CCNC1` [Example 28, 4-[[3-(2,3-difluoro-4-methoxyphenyl)imidazo[1,2-a]pyrazin-8-yl]amino]-2-ethyl-N-[(3S)-pyrrolidin-3-yl]benzamide;hydrochloride], the IC90 is 370 nM. Same read-out and setting: for `CCc1cc(Nc2nccn3c(-c4ccc(OC)c(F)c4F)cnc23)ccc1C(=O)NC1(CO)COC1` [Example 27, 4-[[3-(2,3-difluoro-4-methoxyphenyl)imidazo[1,2-a]pyrazin-8-yl]amino]-2-ethyl-N-[3-(hydroxymethyl)oxetan-3-yl]benzamide] the value was 180 nM.

Compound `COc1ccc(-c2cnc3c(Nc4ccc(C(=O)Nc5ccc(C(=O)O)cc5)c(C)c4)nccn23)cc1F` [Example 25, 4-[[4-[[3-(3-fluoro-4-methoxyphenyl)imidazo[1,2-a]pyrazin-8-yl]amino]-2-methylbenzoyl]amino] benzoic acid] had an IC90 of 1500 nM.

Compound `Cc1cc(Nc2nccn3c(-c4ccc(OC(F)F)c(F)c4)cnc23)ccc1C(=O)N(C)C1CCNCC1` [Example 22, 4-[[3-[4-(difluoromethoxy)-3-fluorophenyl]imidazo[1,2-a]pyrazin-8-yI]amino]-N,2-dimethyl-N-piperidin-4-ylbenzamide;hydrochloride] came in with an IC90 of 1300 nM. `CCc1cc(Nc2nccn3c(-c4ccc(OC)c(F)c4F)cnc23)ccc1C(=O)NC1(CN)COC1` [Example 40, N-(3-(aminomethyl)oxetan-3-yl)-4-((3-(2,3-difluoro-4-methoxyphenyl)imidazo[1,2-a]pyrazin-8-yl)amino)-2-ethylbenzamide hydrochloride]: the 90% effect level (IC90) was put at 482 nM. The same measure, in the same setting: for `COc1ccc(-c2cnc3c(Nc4ccc(C(=O)N(C)C5CCN(C)CC5)cc4)nccn23)cc1` [Example 16, 4-[[3-(4-methoxyphenyl)imidazo[1,2-a]pyrazin-8-yl]amino]-N-methyl-N-(1-methylpiperidin-4-yl)benzamide] the value was 5900 nM; for `COc1ccc(-c2cnc3c(Nc4ccc(C(=O)NC5CCN(C6CCS(=O)(=O)CC6)CC5)c(C)c4)nccn23)cc1F` [Example 24, N-[1-(1,1-dioxothian-4-yl)piperidin-4-yl]-4-[[3-(3-fluoro-4-methoxyphenyl)imidazo[1,2-a]pyrazin-8-yl]amino]-2-methylbenzamide], 600 nM.

For the compound `COc1ccc(-c2cnc3c(Nc4ccc(C(=O)N(C)C5CCNCC5)c(Cl)c4)nccn23)cc1F` [Example 20, 2-chloro-4-[[3-(3-fluoro-4-methoxyphenyl)imidazo[1,2-a]pyrazin-8-yl]amino]-N-methyl-N-piperidin-4-ylbenzamide;hydrochloride], the IC90 is 820 nM.

For a further test, the system named is Acinetobacter baumannii ATCC17961. The test is described as above. In kind it is cell-based. As to conditions: 90% growth inhibitory concentration, Acinetobacter baumannii ATCC17961, Iso-Sensitest broth, OD 600 nm over 16 h; read-out: ATCC17961 IC90. As to the method: as §1, §2, §3, §4, §5
On to `CCc1cc(Nc2nccn3c(-c4ccc(OC)c(F)c4F)cnc23)ccc1C(=O)NC1CCN(C(=O)[C@@H](N)CCCNC(=N)N)CC1` [Example 44, N-(1-(L-arginyl)piperidin-4-yl)-4-((3-(2,3-difluoro-4-methoxyphenyl)imidazo[1,2-a]pyrazin-8-yl)amino)-2-ethylbenzamide bis(2,2,2-trifluoroacetate)], for which the IC90 is 847 nM.

In the case of `COc1ccc(-c2cnc3c(Nc4ccc(C(=O)NC5CCCN(C(=O)[C@@H]6C[C@@H](O)CN6)C5)c(C)c4)nccn23)c(F)c1F` (mixture of isomers) [Example 59, rac-4-((3-(2,3-difluoro-4-methoxyphenyl)imidazo[1,2-a]pyrazin-8-yl)amino)-N-(1-((2R,4S)-4-hydroxypyrrolidine-2-carbonyl)piperidin-3-yl)-2-methylbenzamide], the IC90 is 294 nM. Still for that read-out and setting: as for `COc1ccc(-c2cnc3c(Nc4ccc(C(=O)N[C@H]5CCNC5)c(C)c4)nccn23)c(F)c1F` [Example 55, (S)-4-((3-(2,3-difluoro-4-methoxyphenyl)imidazo[1,2-a]pyrazin-8-yl)amino)-2-methyl-N (pyrrolidin-3-yl)benzamide], the figure is 236 nM. Still for that read-out and setting: as for `COc1ccc(-c2cnc3c(Nc4ccc(C(=O)N[C@H]5CC[C@H](N)C5)c(C)c4)nccn23)c(F)c1F` (racemic) [Example 54, rac-N-((1R,3R)-3-aminocyclopentyl)-4-((3-(2,3-difluoro-4-methoxyphenyl)imidazo[1,2-a]pyrazin-8-yl)amino)-2-methylbenzamide], the figure is 238 nM; as for `COc1ccc(-c2cnc3c(Nc4ccc(C(=O)N[C@H]5C[C@@H](NC(=O)[C@@H]6C[C@@H](O)CN6)C5)c(C)c4)nccn23)c(F)c1F` [Example 66, (2S,4R)-N-((1s,3R)-3-(4-((3-(2,3-difluoro-4-methoxyphenyl)imidazo[1,2-a]pyrazin-8-yl)amino)-2-methylbenzamido)cyclobutyl)-4-hydroxypyrrolidine-2-carboxamide], 40 nM. Same read-out and setting: for `CCc1cc(Nc2nccn3c(-c4ccc(OC)c(F)c4F)cnc23)ccc1C(=O)NC12CC(NC(=O)[C@@H]3C[C@@H](O)CN3)(C1)C2` [Example 70, (2S,4R)-N-(3-(4-((3-(2,3-difluoro-4-methoxyphenyl)imidazo[1,2-a]pyrazin-8-yl)amino)-2-ethylbenzamido)bicyclo[1.1.1]pentan-1-yl)-4-hydroxypyrrolidine-2-carboxamide dihydrochloride] the value was 197 nM; for `CCc1cc(Nc2nccn3c(-c4ccc(OC)c(F)c4F)cnc23)ccc1C(=O)NC1CCC(NC(=O)[C@@H](N)CCCNC(=N)N)C1` (mixture of isomers) [Example 46, rac-N-(3-((R)-2-amino-5-guanidinopentanamido)cyclopentyl)-4-((3-(2,3-difluoro-4-methoxyphenyl)imidazo[1,2-a]pyrazin-8-yl)amino)-2-ethylbenzamide bis(2,2,2-trifluoroacetate)], 754 nM. Turning to `CCc1cc(Nc2nccn3c(-c4ccc(OC)c(F)c4F)cnc23)ccc1C(=O)NC1CCCNC1` (stereo not drawn) [Example 41, 4-((3-(2,3-difluoro-4-methoxyphenyl)imidazo[1,2-a]pyrazin-8-yl)amino)-2-ethyl-N-(piperidin-3-yl)benzamide], the IC90 stood at 363 nM.

For the compound `CCc1cc(Nc2nccn3c(-c4ccc(OC)c(F)c4F)cnc23)ccc1C(=O)NC1CCCN(C(=O)[C@@H](N)CCCNC(=N)N)C1` (mixture of isomers) [Example 48, rac-N-(1-(D-arginyl)piperidin-3-yl)-4-((3-(2,3-difluoro-4-methoxyphenyl)imidazo[1,2-a]pyrazin-8-yl)amino)-2-ethylbenzamide bis(2,2,2-trifluoroacetate)], the IC90 worked out at 749 nM. For the compound `CCc1cc(Nc2nccn3c(-c4ccc(OC)c(F)c4F)cnc23)ccc1C(=O)N[C@@H]1CCN(C(=O)[C@@H](N)CCCNC(=N)N)C1` [Example 47, N-((R)-1-(L-arginyl)pyrrolidin-3-yl)-4-((3-(2,3-difluoro-4-methoxyphenyl)imidazo[1,2-a]pyrazin-8-yl)amino)-2-ethylbenzamide bis(2,2,2-trifluoroacetate)], the IC90 turned out to be 352 nM. Same read-out and setting: as for `COc1ccc(-c2cnc3c(Nc4ccc(C(=O)N[C@H]5C[C@H](N)C5)c(C)c4)nccn23)c(F)c1F` [Example 57, rac-N-((1r,3r)-3-aminocyclobutyl)-4-((3-(2,3-difluoro-4-methoxyphenyl)imidazo[1,2-a]pyrazin-8-yl)amino)-2-methylbenzamide], the figure is 247 nM; as for `COc1ccc(-c2cnc3c(Nc4ccc(C(=O)N[C@H]5C[C@H](NC(=O)[C@@H]6C[C@@H](O)CN6)C5)c(C)c4)nccn23)c(F)c1F` [Example 67, (2S,4R)-N-((1r,3 S)-3-(4-((3-(2,3-difluoro-4-methoxyphenyl)imidazo[1,2-a]pyrazin-8-yl)amino)-2-methylbenzamido)cyclobutyl)-4-hydroxypyrrolidine-2-carboxamide], 101 nM. The same measure, in the same setting: as for `CCc1cc(Nc2nccn3c(-c4ccc(OC)c(F)c4F)cnc23)ccc1C(=O)NC1CCCCC1NC(=O)[C@@H]1C[C@@H](O)CN1` (stereo partly drawn) [Example 49, (2S,4R)-N-(2-(4-((3-(2,3-difluoro-4-methoxyphenyl)imidazo[1,2-a]pyrazin-8-yl)amino)-2-ethylbenzamido)cyclohexyl)-4-hydroxypyrrolidine-2-carboxamide dihydrochloride], the figure is 274 nM; as for `CCc1cc(Nc2nccn3c(-c4ccc(OC)c(F)c4F)cnc23)ccc1C(=O)N[C@@H]1C[C@H]1N` (racemic) [Example 58, rac-N-((1R,2R)-2-aminocyclopropyl)-4-((3-(2,3-difluoro-4-methoxyphenyl)imidazo[1,2-a]pyrazin-8-yl)amino)-2-ethylbenzamide], 315 nM.

On to `COc1ccc(-c2cnc3c(Nc4ccc(C(=O)N[C@H]5CC[C@@H](NC(=O)C(C)C)CC5)c(C)c4)nccn23)c(F)c1F` [Example 60, rac-4-((3-(2,3-dif!uoro-4-methoxyphenyl)imidazo[1,2-a]pyrazin-8-yl)amino)-N-((1s,4s)-4-isobutyramidocyclohexyl)-2-methylbenzamide], for which the IC90 is 189 nM.

As a reminder, the IC90 is the point of the concentration-response curve where the effect stands at 90%.
